The test system of one experiment is ErbB-2. Description: ErbB-2 tyrosine phosphorylation by Western blot in T47D cells. The class given is cell-based, human. The settings on record: MPA. On the procedure: (§1) Primary cultures of epithelial cells from C4HD tumors were performed as described (2). T47D cells were obtained from American Type Culture Collection and T47D-Y cells were a generous gift from Dr. K. Horwitz (Denver, Colo.). To evaluate the effects of the pharmacological inhibitors on MPA-induced proteins phosphorylation or cyclin D1 expression, cells were preincubated for 90 min with RU486, PP2, Tyrphostin AG825 or Jak inhibitor I before addition of MPA. Cell proliferation was evaluated by [3H]-thymidine incorporation assay and cell cycle distribution was analyzed by flow cytometry, as described (22).
(§2) Lysates were prepared from cells subjected to the different treatments and proteins were subjected to SDS-PAGE as previously described (21). Membranes were immunoblotted with the antibodies detailed in each experiment. When phospho(p)-protein antibodies were used, filters were reprobed with total protein antibodies. Signal intensities of pErbB-2, pStat3, pSrc, pPR, pJak1, and pJak2 bands were analyzed by densitometry and normalized to total protein bands. Similarly, signal intensities of PR, cyclin D1, Stat3, and ErbB-2 bands were normalized to actin or β tubulin bands. […] The NEPER Nuclear and Cytoplasmic Extraction Reagents technique (Pierce Biotechnology) was performed as per manufacturer's instructions. Nuclear association between ErbB-2 and Stat3 was studied by performing coimmunoprecipitation experiments using 200 μg of nuclear protein lysates as described (22).
A general note: In western blotting, separated proteins are transferred to a membrane and probed.

The next experiment concerns mouse cyclin D1 promoter. Description: ChIP of Stat3 and ErbB-2 on the mouse cyclin D1 promoter in C4HD cells. The class given is cell-based. To be noted: MPA 30 min. On the procedure: (§3) ChIP was performed as described elsewhere (Hawthorne et al., 2005) with minor modifications. Briefly, chromatin was sonicated to an average of about 500 bp. Sonicated chromatin was then immunoprecipitated using 4 μg of either an anti-ErbB-2 or an anti-Stat3 antibody and rabbit IgG as control. The IP was collected using Protein A beads (Upstate Biotechnology, Lake Placid, N.Y.), which were washed repeatedly to remove nonspecific DNA binding. The chromatin was eluted from the beads and crosslinks were removed overnight at 65° C. DNA was then purified and quantified using real-time PCR. For sequential ChIP experiments, Stat3 immunoprecipitates were eluted with DTT and then subjected to a second round of immunoprecipitation with ErbB-2 antibody or with IgG.
(§4) ChIP DNA was amplified by real-time PCR (qPCR), performed with an ABI Prism 7500 sequence detector using SYBR green PCR master mix (Applied Biosystems, Foster City, Calif.). The primers used were as follows: 5′-TTCCGGTGGTCTGGTTCCT-3′ (SEQ ID NO:12) and 5′-[…]-3′(SEQ ID NO:13) designed to amplify a region of the mouse cyclin D1 promoter containing two GAS sites (−971 and −874), 5′-[…]-3′(SEQ ID NO:14) and 5′-[…]-3′ (SEQ ID NO:15) designed to amplify a region of the human cyclin D1 promoter containing one GAS site (−984). These primers were designed with “Primer Express” real-time PCR primer design software (Applied Biosystems). […]

Another experiment has as its system human cyclin D1 promoter. The experiment can be described thus: ChIP of Stat3 and ErbB-2 on the human cyclin D1 promoter in T47D cells. The class given is cell-based. The settings on record: MPA 30 min, primers flanking the −984 GAS site. On the procedure:
as §3, §4

A further experiment concerns cyclin D1. The experiment can be described thus: Cyclin D1 protein levels by Western blot in C4HD cells. The class given is cell-based, mouse. To be noted: MPA treatment of C4HD cells. The method, then:
as §1
as §2, with “Nuclear association between ErbB-2 and Stat3 was studied by performing coimmunoprecipitation experiments using 200 μg of nuclear protein lysates as described (22).” left out

The subject of the next experiment is Stat3. Description: Stat3 phosphorylation and nuclear translocation in T47D cells. The class given is cell-based, human. To be noted: MPA treatment of T47D cells. On the procedure:
as §2
Cells grown on glass coverslips were fixed and permeabilized in ice-cold methanol and were then blocked with PBS 1% BSA. ErbB-2 was localized using either a rabbit polyclonal (C-18) or a mouse monoclonal (F-11) ErbB-2 antibody (Santa Cruz Biotechnology) and Stat3 was detected using a mouse monoclonal antibody (124H6, Cell Signaling), followed by incubation with a goat anti-rabbit IgG-Alexa 488 (Molecular Probes, Eugene, Oreg.) secondary antibody for ErbB-2 (C-18) and with a rhodamine conjugated goat anti-mouse secondary antibody (Jackson ImmunoResearch Laboratories, West Grove, Pa.) for both ErbB2 (F-11) and Stat3. Negative controls were carried out using PBS instead of primary antibodies, or 5× competitive peptide (Santa Cruz Biotechnology) when ErbB-2 (C-18) was used. When cells were transfected with hErbB-2ΔNLS, green fluorescent protein from this expression vector was visualized by direct fluorescence imaging. […] FIGS. 2A, 3B and C, illustrate a few cells representative of the ones examined. Cells were analyzed using a Nikon Eclipse E800 confocal laser microscopy system (22).

SMILES strings stand for the structures. “Also recorded” adds a separate entry of the source.

These results are taken from patent US9427458B2, “Methods for inhibiting cancer cell proliferation” (Consejo Nacional de Investigaciones Cientificas y Tecnicas, …, priority 2010, dated 2016).

For the compound `CC(=O)O[C@]1(C(C)=O)CC[C@H]2[C@@H]3C[C@H](C)C4=CC(=O)CC[C@]4(C)[C@H]3CC[C@@]21C` [MPA, Medroxyprogesterone acetate], the “ErbB-2 phosphorylation at Tyr 1222 or Tyr 877” value in the experiment with ErbB-2 (PR-null T47D cells (T47D-Y)) is listed as “no effect”. Also, the “ErbB-2 phosphorylation at Tyr 1222 and Tyr 877” value in the experiment on ErbB-2 (T47D-Y cells transfected with human PR-B (T47D-Y-PR-B)) is given as “markedly enhanced”. Also, in the experiment with mouse cyclin D1 promoter, the “binding of nuclear Stat3 and ErbB-2 to the mouse cyclin D1 promoter” value was “significant and specific”. Further, in the experiment on human cyclin D1 promoter, the “occupancy by Stat3 and ErbB-2 of the human cyclin D1 promoter” value is “striking increase”. In addition, in the experiment on cyclin D1, the “cyclin D1 protein levels” value is “significant increase”. For the same compound, in the experiment with Stat3 (30 and 60 min), the Stat3 nuclear translocation result is “induced nuclear translocation of Stat3; also recorded: present at the nuclear compartment and strongly phosphorylated at Tyr 705”. Also, the “nuclear colocalization of ErbB-2 and Stat3” value with Stat3 (30 min, confocal) is “strong nuclear colocalization”.
